From the NIST ThermoML archive (doi:10.1021/je101317k)

How the values were obtained:
[1] = refractive index (other wavelength) (dimensionless); conditions: 101 kPa, Liquid, Wavelength=632.8 nm, Standard Abbe refractometry
[2] = refractive index (other wavelength) (dimensionless); xn = mol fraction of the nth substance listed; conditions: 101 kPa, Liquid, Wavelength=632.8 nm, Standard Abbe refractometry

COC(=O)OC [dimethyl carbonate]
[1]
Conditions	refractive index
277.78 K	1.3747
278.13 K	1.3745
279.18 K	1.374
280.25 K	1.3735
280.74 K	1.3733
281.69 K	1.3728
293.19 K	1.3676
294.27 K	1.3671
295.3 K	1.3666
296.34 K	1.3661
297.38 K	1.3656
298.4 K	1.3651
299.48 K	1.3647

COC(=O)OC [dimethyl carbonate] + CCCCCCCCC
Conditions	refractive index
[2], 281.69 K, x1 = 1	1.3728

CCCCCCCCCCCC [dodecane]
[1]
Conditions	refractive index
293.28 K	1.4203
294.33 K	1.4198
295.37 K	1.4194
296.54 K	1.4189
297.58 K	1.4184
298.65 K	1.418
299.72 K	1.4175

CCCCCCCCCCCC [dodecane] + COC(=O)OC
[2], 299.73 K
Conditions	refractive index
x2 = 0.103	1.414
x2 = 0.204	1.4106
x2 = 0.299	1.4071
x2 = 0.409	1.4028
x2 = 0.512	1.3983
x2 = 0.611	1.3934
x2 = 0.713	1.3875
x2 = 0.791	1.3823
x2 = 0.899	1.3739

CCCCCCCCC [nonane]
[1]
Conditions	refractive index
277.15 K	1.4116
278.19 K	1.4111
279.2 K	1.4106
279.71 K	1.4104
280.28 K	1.4101
281.69 K	1.4095

CCCCCCCCC [nonane] + COC(=O)OC
[2], 281.69 K
Conditions	refractive index
x2 = 0	1.4095
x2 = 0.105	1.4061
x2 = 0.201	1.4031
x2 = 0.305	1.3999
x2 = 0.405	1.3968
x2 = 0.505	1.3936
x2 = 0.596	1.3905
x2 = 0.706	1.3863
x2 = 0.8	1.3822
x2 = 0.888	1.3781
